Measurements: patent US9834563B2 (Merck Sharp & Dohme Corp., priority 2013, dated 2017)

Experiments:
Human GPR40 [1] = target: T1, Human GPR40 (Homo sapiens, UniProt O14842); test: FLIPR assay: agonist-induced calcium mobilization in GPR40/CHO NFAT BLA cells; assay type: cell-based; parameters: expressed in transfected cells; host or cells: CHO cells stably expressing NFAT BLA (beta-lactamase)
Text: (§1) Human and mouse GPR40 stable cell-lines were generated in CHO cells stably expressing NFAT BLA (Beta-lactamase). A human GPR40 stable cell-line was generated in HEK cells stably expressing the aequorin expressing reporter. The expression plasmids were transfected using lipofectamine, LIFE TECHNOLOGIES (Carlsbad, Calif.), following manufacturer's instructions. Stable cell-lines were generated following drug selection.
FLIPR (Fluorimetric Imaging Plate Reader, Molecular Devices) assays were performed to measure agonist-induced calcium mobilization of the stable clones. For the FLIPR assay, one day before assay, GPR40/CHO NFAT BLA cells were seeded into black-wall-clear-bottom 384-well plates (Costar) at 1.4×10e4 cells/20 μL medium/well. The cells were incubated with 20 μl/well of the assay buffer (HBSS, 0.1% BSA, 20 mM HEPES, 2.5 mM probenecid, pH 7.4) containing 8 μM fluo-4, AM, 0.08% pluronic acid at room temperature for 100 minutes. Fluorescence output was measured using FLIPR. Compounds were dissolved in DMSO and diluted to desired concentrations with assay buffer. 13.3 μL/well of compound solution was added. The activities of the compounds in the examples have EC50 (effective concentration of compound to afford 50% of the maximum observed fluorescence) values listed in Table I.

Human GPR40 [2] = target: T1, Human GPR40; test: Inositol phosphate turnover (IP1) assay in HEK cells stably expressing human GPR40; assay type: cell-based; parameters: expressed in transfected cells; conditions: HEK cells stably expressing human GPR40, 3H-inositol labeling, 60 min compound incubation
Description: as §1
The assay is performed in a 96-well format. HEK cells stably expressing human GPR40 are plated to be 60-80% confluent within 72 h. After 72 h, the plates are aspirated and the cells washed with inositol-free DMEM (ICN). The wash media is replaced with 150 μL of 3H-inositol labeling media (inositol-free media containing 0.4% human albumin or 0.4% mouse albumin, 1× pen/strep antibiotics, glutamine, 25 mM HEPES to which is added 3H-myo-inositol NEN #NET114A 1 mCi/mL, 25 Ci/mmol diluted 1:150 in loading media with a final specific radioactivity of 1 μCi/150 μL). Alternatively, the human and mouse albumin can be added after the overnight labeling step before the addition of LiCl.
The assay is typically run the next day after 18 h labeling. On the day of the assay, 5 μL of 300 mM LiCl is added to all wells and incubated at 37 degrees for 20 min. 0.75 μL of 200× compounds are added and incubated with the cells for 60 min at 37 degrees. The media is then aspirated off and the assay terminated with the addition of 60 μL 10 mM formic acid. The cells are lysed for 60 min at room temperature. 15-30 μL of lysate is mixed with 70 μL/1 mg YSi SPA beads AMERSHAM (United Kingdom) in clear bottom Isoplates. The plates are shaken for 2 h at room temperature. Beads are allowed to settle and the plates are counted in the Wallac MICROBETA instrument. The activities of the compounds in the examples have EC50 (effective concentration of compound to afford 50% of the maximum observed […]) values listed in Table I.

T1 sequence (O14842 whole entry): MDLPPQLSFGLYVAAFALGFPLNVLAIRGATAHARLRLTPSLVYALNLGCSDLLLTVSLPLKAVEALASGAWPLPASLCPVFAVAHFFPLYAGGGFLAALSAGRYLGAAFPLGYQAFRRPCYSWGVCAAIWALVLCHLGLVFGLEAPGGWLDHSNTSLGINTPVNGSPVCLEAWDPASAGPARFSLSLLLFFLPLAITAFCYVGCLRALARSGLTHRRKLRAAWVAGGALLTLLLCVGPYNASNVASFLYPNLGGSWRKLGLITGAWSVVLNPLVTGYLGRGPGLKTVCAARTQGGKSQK

Row | EC50 (Human GPR40 [1]) [nM] | EC50 (Human GPR40 [2]) [nM] | SMILES
1 | 93.1 |  | Cc1cc(OC2CCS(=O)(=O)CC2)ncc1-c1ccc(F)c(COc2ccc3c(c2)C[C@H]2[C@H](C(=O)O)[C@@H]32)c1 [Example 10, 4-{5-[6-(1,1-Dioxo-hexahydro-l16-thiopyran-4-yloxy)-4-methyl-pyridin-3-yl]-2-fluoro-benzyloxy}-1,1a,6,6a-tetrahydro-cyclopropa[a]indene-1-carboxylic acid]
2 | 30.9 | 14 | Cc1nc(O[C@@H]2CO[C@H]3[C@@H]2OC[C@@H]3O)ccc1-c1ccc(F)c(COc2ccc3c(c2)C[C@H]2[C@H](C(=O)O)[C@@H]32)c1 [Example 31, (1S,1aS,6aR)-4-((2-fluoro-5-(6-(((3R,3aR,6S,6aR)-6-hydroxyhexahydrofuro[3,2-b]furan-3-yl)oxy)-2-methylpyridin-3-yl)benzyl)oxy)-1,1a,6,6a-tetrahydrocyclopropa[a]indene-1-carboxylic acid]
3 | 55.9 | 43.5 | Cc1nc(NCCCS(C)(=O)=O)ccc1-c1ccc(F)c(COc2ccc3c(c2)C[C@H]2[C@H](C(=O)O)[C@@H]32)c1 [Example 11, 4-{2-Fluoro-5-[6-(3-methanesulfonyl-propylamino)-2-methyl-pyridin-3-yl]-benzyloxy}-1,1a,6,6a-tetrahydro-cyclopropa[a]indene-1-carboxylic acid]
4 | 232 |  | Cc1cc(OCCCS(C)(=O)=O)ncc1-c1cccc(COc2ccc3c(c2)C[C@H]2[C@H](C(=O)O)[C@@H]32)c1C [Example 8, 4-{3-[6-(3-Methanesulfonyl-propoxy)-4-methyl-pyridin-3-yl]-2-methyl-benzyloxy}-1,1a,6,6a-tetrahydro-cyclopropa[a]indene-1-carboxylic acid]
5 | 75.1 | 889 | Cc1nc(OCCCOCc2ccccc2)ccc1-c1ccc(F)c(COc2ccc3c(c2)C[C@H]2[C@H](C(=O)O)[C@@H]32)c1 [Example 34, (1S,1aS,6aR)-4-((5-(6-(3-(benzyloxy)propoxy)-2-methylpyridin-3-yl)-2-fluorobenzyl)oxy)-1,1a,6,6a-tetrahydrocyclo-propa[a]indene-1-carboxylic acid]
6 | 35.4 | 5.5 | O=C(O)[C@H]1[C@@H]2Cc3cc(OCc4cc(-c5cnc(NCC6CCOCC6)cc5C(F)(F)F)ccc4F)ccc3[C@@H]21 [Example 55, (1S,1aS,6aR)-4-((2-fluoro-5-(6-(((tetrahydro-2H-pyran-4-yl)methyl)amino)-4-(trifluoromethyl)pyridin-3-yl)benzyl)oxy)-1,1a,6,6a-tetrahydrocyclopropa[a]indene-1-carboxylic acid]
7 | 23.3 | 26.3 | Cc1nc(N2CC(S(C)(=O)=O)C2)ccc1-c1ccc(F)c(COc2ccc3c(c2)C[C@H]2[C@H](C(=O)O)[C@@H]32)c1 [Example 51, (1S,1aS,6aR)-4-((2-fluoro-5-(2-methyl-6-(3-(methylsulfonyl)azetidin-1-yl)pyridin-3-yl)benzyl)oxy)-1,1a,6,6a-tetrahydrocyclopropa[a]indene-1-carboxylic acid]
8 | 98 |  | Cc1cc(OCCCS(C)(=O)=O)nc(C)c1-c1cccc(COc2ccc3c(c2)C[C@H]2[C@H](C(=O)O)[C@@H]32)c1C [Example 7, 4-{3-[6-(3-Methane-sulfonyl-propoxy)-2,4-dimethyl-pyridin-3-yl]-2-methyl-benzyloxy}-1,1a,6,6a-tetrahydro-cyclopropa[a]indene-1-carboxylic acid]
9 | 67.9 | 39 | Cc1nc(OC[C@@H]2CCCC[C@H]2S(C)(=O)=O)ccc1-c1ccc(F)c(COc2ccc3c(c2)C[C@H]2[C@H](C(=O)O)[C@@H]32)c1 [Example 25, (1S,1aS,6aR)-4-((2-fluoro-5-(2-methyl-6-(((1S,2R)-2-(methylsulfonyl)cyclohexyl)methoxy)pyridin-3-yl)benzyl)oxy)-1,1a,6,6a-tetrahydrocyclopropa[a]indene-1-carboxylic acid]
10 | 59.9 |  | Cc1nc(N2CCC(S(C)(=O)=O)CC2)ccc1-c1cccc(COc2ccc3c(c2)C[C@H]2[C@H](C(=O)O)[C@@H]32)c1 [Example 3, (1S,1aS,6aR)-4-((3-(2-Methyl-6-(4-(methylsulfonyl)piperidin-1-yl)pyridin-3-yl)benzyl)oxy)-1,1a,6,6a-tetrahydrocyclopropa[a]indene-1-carboxylic acid]
11 | 102 |  | Cc1cc(OC2CCS(=O)(=O)CC2)nc(C)c1-c1cccc(COc2ccc3c(c2)C[C@H]2[C@H](C(=O)O)[C@@H]32)c1 [Example 13, 4-{3-[6-(1,1-Dioxo-hexahydro-l16-thiopyran-4-yloxy)-2,4-dimethyl-pyridin-3-yl]-benzyloxy}-1,1a,6,6a-tetrahydro-cyclopropa[a]indene-1-carboxylic acid]
12 | 252 |  | Cc1nc(OC2CCS(=O)(=O)CC2)ccc1-c1cccc(COc2ccc3c(c2)C[C@H]2[C@H](C(=O)O)[C@@H]32)c1C [Example 17, 4-{3-[6-(1,1-Dioxo-hexahydro-l16-thiopyran-4-yloxy)-2-methyl-pyridin-3-yl]-2-methyl-benzyloxy}-1,1a,6,6a-tetrahydro-cyclopropa[a]indene-1-carboxylic acid]
13 | 58.9 |  | Cc1cc(OCCCS(C)(=O)=O)ncc1-c1ccc(F)c(COc2ccc3c(c2)C[C@H]2[C@H](C(=O)O)[C@@H]32)c1F [Example 22, 4-(2,6-difluoro-3-[6-(3-methanesulfonyl-propoxy)-4-methyl-pyridin-3-yl]-benzyloxy)-1,1a,6,6a-tetrahydro-cyclopropa[a]indene-1-carboxylic acid]
14 | 206 |  | CS(=O)(=O)CCCOc1ccc(-c2cccc(COc3ccc4c(c3)C[C@H]3[C@H](C(=O)O)[C@@H]43)c2)c(CO)n1 [Example 18, 4-{3-[2-Hydroxymethyl-6-(3-methanesulfonyl-propoxy)-pyridin-3-yl]-benzyloxy}-1,1a,6,6a-tetrahydro-cyclopropa[a]indene-1-carboxylic acid]
15 | 47.4 |  | Cc1cc(OCCCS(C)(=O)=O)nc(C)c1-c1ccc(F)c(COc2ccc3c(c2)C[C@H]2[C@H](C(=O)O)[C@@H]32)c1F [Example 21, 4-(2,6-difluoro-3-[6-(3-methanesulfonyl-propoxy)-2,4-dimethyl-pyridin-3-yl]-benzyloxy)-1,1a,6,6a-tetrahydro-cyclopropa[a]indene-1-carboxylic acid]
16 | 4280 |  | Cc1cc(NCCCS(C)(=O)=O)ncc1-c1cccc(COc2ccc3c(c2)C[C@H]2[C@H](C(=O)O)[C@@H]32)c1C [Example 16, 4-{3-[6-(3-Methanesulfonyl-propylamino)-4-methyl-pyridin-3-yl]-2-methyl-benzyloxy}-1,1a,6,6a-tetrahydro-cyclopropa[a]indene-1-carboxylic acid]
17 | 99 |  | Cc1cc(OC2CCS(=O)(=O)CC2)nc(C)c1-c1ccc(F)c(COc2ccc3c(c2)C[C@H]2[C@H](C(=O)O)[C@@H]32)c1 [Example 9, 4-{5-[6-(1,1-Dioxo-hexahydro-l16-thiopyran-4-yloxy)-2,4-dimethyl-pyridin-3-yl]-2-fluoro-benzyloxy}-1,1a,6,6a-tetrahydro-cyclopropa[a]indene-1-carboxylic acid]
18 | 5.5 |  | Cc1cc(OCCCS(C)(=O)=O)ncc1-c1ccc(F)c(COc2ccc3c(c2)C[C@H]2[C@H](C(=O)O)[C@@H]32)c1 [Example 19, (1S,1aS,6aR)-4-[(2-fluoro-5-{4-methyl-6-[3-(methylsulfonyl)propoxy]pyridin-3-yl}benzyl)oxy]-1,1a,6,6a-tetrahydrocyclopropa[a]indene-1-carboxylic acid]

Row | SMILES | EC50 (Human GPR40 [1]) [nM] | EC50 (Human GPR40 [2]) [nM]
19 | Cc1nc(NCCCS(C)(=O)=O)ccc1-c1cccc(COc2ccc3c(c2)C[C@H]2[C@H](C(=O)O)[C@@H]32)c1 [Example 12, 4-{3-[6-(3-Methanesulfonyl-propylamino)-2-methyl-pyridin-3-yl]-benzyloxy}-1,1a,6,6a-tetrahydro-cyclopropa[a]indene-1-carboxylic acid] | 123 | 
20 | Cc1cc(NCCCS(C)(=O)=O)ncc1-c1cccc(COc2ccc3c(c2)C[C@H]2[C@H](C(=O)O)[C@@H]32)c1 [Example 15, 4-{3-[6-(3-Methanesulfonyl-propylamino)-4-methyl-pyridin-3-yl]-benzyloxy}-1,1a,6,6a-tetrahydro-cyclopropa[a]indene-1-carboxylic acid] | 317 | 
